melting point | Compound
80 to 85 °C | Cc1cc(C)c(C2C(=O)N(N(C)C)C3(CCN(N(C)C)CC3)C2=O)c(C)c1 (centres unmarked) [Compound A1, 1,8-Bis-dimethylamino-3-(2,4,6-trimethyl-phenyl)-1,8-diaza-spiro[4.5]decane-2,4-dione]
105 °C | CCOC(=O)OC1=C(c2c(C)cc(C)cc2C)C(=O)N(N(C)C)C12CCN(N(C)C)CC2 [Compound A2, Carbonic acid 1,8-bis-dimethylamino-2-oxo-3-(2,4,6-trimethyl-phenyl)-1,8-diaza-spiro[4.5]dec-3-en-4-yl ester ethyl ester]
